Data: PMC5012566, “A Cell-Based Assay for Measuring Endogenous BcrAbl Kinase Activity and Inhibitor Resistance” (PLoS ONE, 2016)

Key:
K562-NR cells [1] = conditions: cross-resistance, relative to parental
[2] = test system: chronic myeloid leukemia (CML); conditions: cited from earlier work
K562-NR cells [3] = assay: cells; conditions: Homo sapiens, read-out: Growth Inhibition IC50 (95% CI)
K562-DR cells = assay: cells; conditions: Homo sapiens, read-out: Growth Inhibition IC50 (95% CI)
K562 cells = conditions: parental K562 cells; 10 nM dasatinib; Fig 6C

SMILES: Cc1ccc(NC(=O)c2ccc(CN3CCN(C)CC3)cc2)cc1Nc1nccc(-c2cccnc2)n1 [imatinib]
- cell growth inhibition (in words) (K562-NR cells [1]): unable to inhibit growth at any of the concentrations tested
- response rate [2]: 80%

SMILES: Cc1cn(-c2cc(NC(=O)c3ccc(C)c(Nc4nccc(-c5cccnc5)n4)c3)cc(C(F)(F)F)c2)cn1 [nilotinib]
- IC50 (K562-NR cells [3]): 718 nM
- IC50 (K562-DR cells): 25 nM

SMILES: Cc1nc(Nc2ncc(C(=O)Nc3c(C)cccc3Cl)s2)cc(N2CCN(CCO)CC2)n1 [dasatinib]
- cell growth at the level consistent with resistant culture conditions (K562 cells): lack of growth
- cell growth inhibition (in words) (K562-NR cells [1]): somewhat less potent
- IC50 (K562-NR cells [3]): 3.6 nM
